The values below are quoted from earlier work in patent US11332491B2, “E-selectin antagonist compounds, compositions, and methods of use” (GLYCOMIMETICS, INC., priority 2011, dated 2022).

The structures appear in SMILES notation.

The test system of this data set is human AML engrafted in NODscid IL2Rgc-/- mice. The following applies: ASH 2011 abstracts.

Consider `c1cc(CN2CCCNCCNCCCNCC2)ccc1CN1CCCNCCNCCCNCC1` [plerixafor], for which the “mobilization of human AML” value is given as “approximately 2 fold”.
